≈ marks a conversion by molar mass, not a printed value. Like-named read-outs stand apart in the source and are kept apart here.
Tests used:
M. tuberculosis H37Rv = test: microbe, parasite or virus in culture; assay type: cell-based; settings: Mycobacterium tuberculosis, 120 h
[1] = test system: wild-type M. tuberculosis; test: microbe, parasite or virus in culture; assay type: cell-based, Mycobacterium tuberculosis; settings: for IC90 / MIC: Mycobacterium tuberculosis
in vitro [2] = assay type: cell-based; settings: human; for IC20: concentration for 20% inhibition of HepG2 cells, 72 h, n = 2
Protocol: HepG2 cells were seeded at 2000 cells per well in 384-well, black, clear bottom PDL coated plates in MEM medium supplemented with 10% FBS, 2 mM L-glutamine, 1 mM sodium pyruvate and incubated overnight at 37C, 5% CO2. Compounds were added and plates incubated for 72 h. Cell viability was measured using the CyQUANT® reagent and imaging on a ViewLux™ ultraHTS Microplate Imager. The IC20 and IC50 were calculated from dose response curves.

in vitro [3] = assay type: in vitro ADME, human; settings: for microsomal clearance / stability (in words): human microsomes; for CLint scaled at 0.5 µM: human, microsomes, pH 7.4, human Clint
Protocol: Compounds (0.5 µM) were incubated with 0.25 mg/mL liver microsomal proteins at pH 7.4 at 37 °C. Reactions were initiated with […] and samples taken at 0, 5, 10, 15, 20 and 30 min. The reaction was stopped by addition of 95% ACN/5% MeOH containing an internal standard. Samples were combined in compound groups of six pre-sorted by mono molecular weight and analyzed by LC/MS/MS. The peak area ratios (analyte peak area/IS peak area) were converted to % remaining using the area ratio at time 0 as 100%. The. half-life (T ½) and intrinsic clearance (mCLint) were calculated.

[4] = Table 5, read-out: Wild-type MIC

Structure (SMILES) | inhibition at 20 µM (M. tuberculosis H37Rv; read-out: % Inhibition Run 1) [%] | inhibition at 20 µM (M. tuberculosis H37Rv; read-out: % Inhibition Run 2) [%] | MIC ([1]; read-out: MTB MIC) [µM] | IC20 at 72 h (in vitro [2]) [µM] | MIC ([1]; 120 h, read-out: MIC) [µM] | also measured
CNc1cc(-c2ccccn2)nc(-c2ccccn2)n1 [APDP-1] | 99 | 100 | 10 (≈ 2.63 µg/mL) | 0.028 |  | IC90 [1]: 10 µM
CC(C)c1ccc(-n2nnn(C(=O)N(C)C3CCOCC3)c2=O)cc1Cl [PTZ-3] | 96 | 6 | 5.2 (≈ 1.98 µg/mL) |  |  | IC20 (in vitro [2]): 26 µM
Cc1nc2ccccn2c1-c1ccn(Cc2ccccc2)n1 [PPP-1] | 100 | 98 | 38 (≈ 11 µg/mL) | 4.3 |  | 
CC(=O)n1nccc1-c1sc(-c2cccs2)nc1C [TPT] | 99 | 99 | 7.1 (≈ 2.05 µg/mL) | > 80 |  | IC90 [1]: 7.1 µM
C=CCc1c(C)nc(-c2ccccn2)nc1O [PDPO-1] | 99 | 96 | 23 (≈ 5.23 µg/mL) | 2.8 |  | 
CCC(=O)Nc1nc(-c2nc3ccccc3oc2=O)cs1 [BOZ] | 99 | 100 | 4.8 (≈ 1.45 µg/mL) | 37 |  | 
Cc1cc(NC2CCCCC2)nc(-n2nc(C)cc2C)n1 [PZP-3] | 98 | 98 | 4.5 (≈ 1.28 µg/mL) | 47 |  | IC90 [1]: 4.5 µM
Cc1cnc(-n2nnc3ccccc3c2=O)s1 [BTT] | 100 | 100 | 4.8 (≈ 1.17 µg/mL) | 37 |  | 
Nc1ccnc(Nc2ccccc2Nc2ccccc2)n1 [DAP] | 99 | 99 | 0.7 (≈ 0.194 µg/mL) | 0.83 |  | 
CCOC(=O)c1oc2c(c1C)-c1nc(C)sc1CC2 [TZF] | 99 | 99 | 18 (≈ 4.99 µg/mL) | > 80 |  | 
N#C/C(=C\NC1CCCCC1)c1nc2ccccc2[nH]1 [BCI-2] | 100 | 100 | 9.6 (≈ 2.56 µg/mL) | 0.85 |  | 
O=C(Nc1nc2ccccc2s1)NC1C2CC3CC(C2)CC1C3 (stereo not drawn) [HBU-1] | 100 | 100 |  | 8.2 |  | IC90 [1]: 4.2 µM; MIC ([1]; 120 h, read-out: MTB MIC): 4.2 µM (≈ 1.38 µg/mL)
O=S(=O)(Nc1ccccc1-c1nn[nH]n1)c1ccc(OC(F)(F)F)cc1 [APT] | 99 | 99 | 6.9 (≈ 2.66 µg/mL) | 0.47 |  | 
Cc1ccc(-c2nnc(C)c(N3CCCC3)n2)cc1 [PYT] | 100 | 98 | 11 (≈ 2.8 µg/mL) | 23 |  | IC90 [1]: 11 µM
c1ccc(N2CCN(Cc3cnc4ccccc4n3)CC2)cc1 [AMQ-5] | 98 | 99 | 7.8 (≈ 2.37 µg/mL) | 2 |  | 
c1ccc(-c2cncc(N3CC4CC5CC3CN(C5)C4)c2)cc1 (stereo not drawn) [AAP] | 99 | 97 |  |  |  | MIC ([1]; 120 h, read-out: MTB MIC): 23 µM (≈ 7.02 µg/mL); IC20 (in vitro [2]): 27 µM

Structure (SMILES) | inhibition at 20 µM (M. tuberculosis H37Rv; read-out: % Inhibition Run 1) [%] | inhibition at 20 µM (M. tuberculosis H37Rv; read-out: % Inhibition Run 2) [%] | MIC ([1]; read-out: MTB MIC) [µM] | IC20 at 72 h (in vitro [2]) [µM] | MIC ([1]; 120 h, read-out: MIC) [µM] | also measured
NCC(c1ccco1)S(=O)(=O)c1ccccc1 (stereo not drawn) [FAS] | 100 | 100 | 9.5 (≈ 2.39 µg/mL) | 2 |  | 
O=C(c1c(Cl)cccc1Cl)N1COCN(c2ccc(C(F)(F)F)cc2)C1=O [ACU-1] | 98 | 98 | 7.6 (≈ 3.19 µg/mL) | 65 |  | 
O=C(NCCc1cccc(Br)c1)C1(c2ccc(Cl)cc2)CCC1 [PCB-15, N-(3-bromophenethyl)-1-(4-chlorophenyl)cyclobutane-1-carboxamide] |  |  |  |  | 9.7 ± 6.7 (≈ 3.81 µg/mL) | anti-tubercular activity (in words) [1]: slight reduction; microsomal clearance / stability (in words) (in vitro [3]): clearances increased; CLint scaled at 0.5 µM (in vitro [3]): 559 L/h/kg
COc1ccc(CCNC(=O)C2(c3ccccc3Cl)CCC2)cc1-c1ccccc1 [PCB-27, 1-(2-chlorophenyl)-N-(2-(6-methoxy-[1,1'-biphenyl]-3-yl)ethyl)cyclobutane-1-carboxamide] |  |  |  |  | 3.6 ± 1.3 (≈ 1.51 µg/mL) | microsomal clearance / stability (in words) (in vitro [3]): much higher clearance; CLint scaled at 0.5 µM (in vitro [3]): 1680 L/h/kg
Clc1ccc(-c2nc(Cn3ccnc3)cs2)cc1 [AMT-1] | 98 | 96 | 35 (≈ 9.65 µg/mL) | 34 |  | 
CN(Cc1cn2c3ccccc3n(C)c2n1)C12CC3CC(CC(C3)C1)C2 [PZI] | 98 | 98 | 9.3 (≈ 3.24 µg/mL) | 15 |  | 
O=C(NCCc1cccc(C(F)(F)F)c1)C1(c2ccccc2)COC1 [PCB-28, 3-phenyl-N-(3-(trifluoromethyl)phenethyl)oxetane-3-carboxamide] |  |  |  |  | 9.1 ± 0.8 (≈ 3.18 µg/mL) | anti-tubercular activity (in words) [1]: loss in activity; microsomal clearance / stability (in words) (in vitro [3]): improved clearance; CLint scaled at 0.5 µM (in vitro [3]): 13.9 L/h/kg
CC(=O)n1cc(Nc2ccccc2O)c2ccccc21 [ACI-2] | 100 | 100 | 4.5 (≈ 1.2 µg/mL) | 30 |  | 
O=C(NCCc1cccc(Br)c1)C1(c2cccc(Cl)c2)CCC1 [PCB-16, N-(3-bromophenethyl)-1-(3-chlorophenyl)cyclobutane-1-carboxamide] |  |  |  |  | 5 ± 1.6 (≈ 1.96 µg/mL) | anti-tubercular activity (in words) [1]: little change; MIC [1, 4]: 5 µM (≈ 1.96 µg/mL); microsomal clearance / stability (in words) (in vitro [3]): clearances increased; CLint scaled at 0.5 µM (in vitro [3]): 552 L/h/kg
CCC1(N2CCC(c3ccccc3)CC2)CCCCC1 [Molecule 4PP-1, 1-(1-Ethyl-cyclohexyl)-4-phenyl-piperidine] | 100 | 99 | 6.3 (≈ 1.71 µg/mL) |  | 6.3 ± 2.7 (≈ 1.71 µg/mL) | IC90 [1]: 6.3 µM; MIC [1, 4]: 6.3 µM (≈ 1.71 µg/mL); MIC ([1]; read-out: MIC): 6.3 µM (≈ 1.71 µg/mL); IC20 (in vitro [2]): > 80 µM
O=C(NCCc1cccc(Br)c1)C1(c2ccccc2F)CCC1 [PCB-20, N-(3-bromophenethyl)-1-(2-fluorophenyl)cyclobutane-1-carboxamide] |  |  |  |  | 5.5 ± 2.1 (≈ 2.07 µg/mL) | microsomal clearance / stability (in words) (in vitro [3]): very poor microsomal stability; CLint scaled at 0.5 µM (in vitro [3]): 263 L/h/kg
O=C(N[C@H]1CCc2ccc(Br)cc2C1)C1(c2ccccc2)CCC1 [PCB-9, (S)-N-(7-bromo-1,2,3,4-tetrahydronaphthalen-2-yl)-1-phenylcyclobutane-1-carboxamide] |  |  |  |  | 6.9 ± 2.9 (≈ 2.65 µg/mL) | MIC ([1]; read-out: MIC): 6.9 µM (≈ 2.65 µg/mL); microsomal clearance / stability (in words) (in vitro [3]): increased microsomal clearance; CLint scaled at 0.5 µM (in vitro [3]): 273 L/h/kg
O=C(Nc1ncc2c(Br)cccc2n1)C1(c2ccccc2)CCC1 [PCB-10, N-(5-bromoquinazolin-2-yl)-1-phenylcyclobutane-1-carboxamide] |  |  |  |  | 9.3 ± 1 (≈ 3.56 µg/mL) | MIC ([1]; read-out: MIC): 9.3 µM (≈ 3.56 µg/mL); microsomal clearance / stability (in words) (in vitro [3]): reasonable clearance; CLint scaled at 0.5 µM (in vitro [3]): 14.4 L/h/kg
COc1cc(CCNC(=O)C2(c3ccccc3)CCC2)ccc1O [PCB-3, N-(4-hydroxy-3-methoxyphenethyl)-1-phenylcyclobutane-1-carboxamide] |  |  |  |  | > 20 | MIC ([1]; read-out: MIC): > 20 µM; microsomal clearance / stability (in words) (in vitro [3]): clearance was improved; CLint scaled at 0.5 µM (in vitro [3]): 12.5 L/h/kg
Brc1cccc(-c2nc(C3(c4ccccc4)CCC3)no2)c1 [PCB-13, 5-(3-bromophenyl)-3-(1-phenylcyclobutyl)-1,2,4-oxadiazole] |  |  |  |  | > 20 | anti-tubercular activity (in words) [1]: loss of activity; microsomal clearance / stability (in words) (in vitro [3]): high clearance; CLint scaled at 0.5 µM (in vitro [3]): 266 L/h/kg
